The values that follow are results of earlier work, collected in publication PMC4969713 (Journal of Alzheimer's Disease, 2016).

For one series, the target named is 5-HT7 receptor (Homo sapiens, UniProt P34969). The settings on record: cited from earlier work.
For the next series, the target named is 5-HT2A receptor (Homo sapiens, UniProt P28223). The settings on record: Table 2; cited from earlier work.
Another series addresses T1, 5-HT2C receptor (Homo sapiens, UniProt P28335).
T1 sequence (P28335 33-458): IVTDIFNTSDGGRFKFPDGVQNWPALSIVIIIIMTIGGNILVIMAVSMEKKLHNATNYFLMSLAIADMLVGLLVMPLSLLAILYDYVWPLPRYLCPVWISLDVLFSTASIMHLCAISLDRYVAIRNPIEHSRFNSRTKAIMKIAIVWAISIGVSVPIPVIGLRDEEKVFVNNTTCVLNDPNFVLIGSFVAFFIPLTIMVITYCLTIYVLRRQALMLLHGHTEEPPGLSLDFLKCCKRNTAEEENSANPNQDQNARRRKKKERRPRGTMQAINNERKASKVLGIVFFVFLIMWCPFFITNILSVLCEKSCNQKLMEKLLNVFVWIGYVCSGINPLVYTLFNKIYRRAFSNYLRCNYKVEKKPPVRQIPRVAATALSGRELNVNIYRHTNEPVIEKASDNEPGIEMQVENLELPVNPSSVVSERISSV
The settings on record: Table 2; cited from earlier work.

A further series deals with 5-HT2B receptor (Homo sapiens, UniProt P41595). The settings on record: Table 2; cited from earlier work.
The target in another series is 5-HT1A receptor (Homo sapiens, UniProt P08908). The settings on record: Table 2; cited from earlier work.
The next series addresses 5-HT1B receptor. The settings on record: Table 2; cited from earlier work.

5-HT7 receptor, sequence (P34969 whole entry): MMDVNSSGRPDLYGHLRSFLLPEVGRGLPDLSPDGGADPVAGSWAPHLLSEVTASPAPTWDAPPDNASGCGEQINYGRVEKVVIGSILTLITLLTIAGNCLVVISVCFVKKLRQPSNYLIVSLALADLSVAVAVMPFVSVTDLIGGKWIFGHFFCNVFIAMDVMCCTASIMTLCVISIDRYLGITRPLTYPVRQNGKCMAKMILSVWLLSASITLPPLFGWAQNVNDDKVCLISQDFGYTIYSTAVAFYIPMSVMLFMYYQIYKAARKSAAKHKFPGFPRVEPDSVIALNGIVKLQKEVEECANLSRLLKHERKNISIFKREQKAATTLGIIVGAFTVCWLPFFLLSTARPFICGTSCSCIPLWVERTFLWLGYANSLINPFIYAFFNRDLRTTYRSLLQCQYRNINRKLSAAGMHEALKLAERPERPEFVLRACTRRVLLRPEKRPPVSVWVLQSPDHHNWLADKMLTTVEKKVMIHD
5-HT2B receptor, sequence (P41595 whole entry): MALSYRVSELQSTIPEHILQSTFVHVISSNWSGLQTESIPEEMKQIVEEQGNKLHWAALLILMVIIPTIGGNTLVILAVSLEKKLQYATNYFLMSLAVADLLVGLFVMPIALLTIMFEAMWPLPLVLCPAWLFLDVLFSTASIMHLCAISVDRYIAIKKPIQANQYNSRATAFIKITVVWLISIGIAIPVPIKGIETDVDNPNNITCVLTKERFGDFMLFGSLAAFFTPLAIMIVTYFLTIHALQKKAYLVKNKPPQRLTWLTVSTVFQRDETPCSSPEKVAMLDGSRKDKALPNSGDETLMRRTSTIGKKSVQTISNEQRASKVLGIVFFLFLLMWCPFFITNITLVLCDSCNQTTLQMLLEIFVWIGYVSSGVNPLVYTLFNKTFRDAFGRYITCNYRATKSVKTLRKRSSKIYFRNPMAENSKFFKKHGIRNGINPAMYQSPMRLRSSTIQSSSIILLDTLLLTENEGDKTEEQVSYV
5-HT1A receptor, sequence (P08908 whole entry): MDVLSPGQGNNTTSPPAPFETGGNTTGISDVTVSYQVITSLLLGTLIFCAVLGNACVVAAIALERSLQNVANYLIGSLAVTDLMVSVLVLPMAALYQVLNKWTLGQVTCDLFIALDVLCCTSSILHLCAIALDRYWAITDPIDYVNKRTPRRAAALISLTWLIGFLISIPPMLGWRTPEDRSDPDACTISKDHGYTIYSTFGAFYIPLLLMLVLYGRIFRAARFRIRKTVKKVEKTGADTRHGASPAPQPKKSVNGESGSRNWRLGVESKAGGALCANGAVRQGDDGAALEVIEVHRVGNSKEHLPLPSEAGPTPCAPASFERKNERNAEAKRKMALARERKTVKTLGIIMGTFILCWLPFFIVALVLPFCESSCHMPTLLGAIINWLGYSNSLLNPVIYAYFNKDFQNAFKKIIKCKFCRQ
5-HT2A receptor, sequence (P28223 whole entry): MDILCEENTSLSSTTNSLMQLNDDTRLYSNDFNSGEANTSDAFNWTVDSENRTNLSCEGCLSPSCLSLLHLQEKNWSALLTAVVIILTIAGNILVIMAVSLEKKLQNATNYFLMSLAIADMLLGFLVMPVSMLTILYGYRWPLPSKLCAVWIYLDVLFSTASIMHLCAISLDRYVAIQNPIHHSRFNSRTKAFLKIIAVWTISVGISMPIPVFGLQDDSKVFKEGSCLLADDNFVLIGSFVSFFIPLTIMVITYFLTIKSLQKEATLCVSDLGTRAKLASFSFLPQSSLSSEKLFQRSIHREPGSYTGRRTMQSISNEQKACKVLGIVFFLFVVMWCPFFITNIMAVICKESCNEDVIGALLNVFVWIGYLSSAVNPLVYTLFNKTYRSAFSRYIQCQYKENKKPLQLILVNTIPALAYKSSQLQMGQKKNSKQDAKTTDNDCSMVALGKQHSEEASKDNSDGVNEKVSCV

What is called Ki is a measure of affinity in units of concentration, obtained from inhibition or displacement. For the molecule `Fc1ccc2c(CCNCc3cccc(OCC(F)(F)C(F)F)c3)c[nH]c2c1` [Lu AE58054], the Ki on 5-HT7 receptor (Table 2) was above 10 µM; at 5-HT2A receptor, 83 nM; on 5-HT2C receptor, 250 nM; on 5-HT2B receptor it was above 4.1 µM; on 5-HT1A receptor it was 2300 nM; at 5-HT1B receptor, above 10 µM. Moreover, the binding affinity entry on 5-HT7 receptor is recorded as “very low, if any”.
